According to patent US6982362B1, “α-tocopherol transport protein knockout animal” (priority 1999, dated 2006):

Assay: Plasma α-tocopherol levels in mice fed with α-tocopherol (HPLC)
Type: in vivo, mouse
Conditions: fed α-tocopherol 82 μmol/kg from 4 weeks of age, time course FIG. 7
Protocol: Each of the homozygous α-TTP-deficient, heterozygous α-TTP-deficient and wild-type mice was fed with α-tocopherol at a concentration of 82 μmol/kg from 4 weeks of age. All mice were then assayed for their plasma α-tocopherol levels according to the method of Kim, H. S. et al. (Free Rad. Res. 28, 87–92, 1998). More specifically, 50 μl of mouse plasma collected using heparin was diluted with 950 Pl of PBS, mixed with 1 ml of 6% pyrogarol in EtOH, and then allowed to stand at 70° C. for 2 minutes. After addition of 60% KOH (0.2 ml), the mixture was saponified at 70° C. for 30 minutes, vortexed with 5 ml of n-hexane and 2.5 ml of H2O, and then centrifuged to collect the n-hexane layer (4 ml). The layer was evaporated and dissolved in […] of ethanol, followed by HPLC analysis. HPLC was performed under the following conditions: column: IRIKA RP18 (250×4 mm), mobile phase: MeOH/H2O/NaClO4 (1000/2/7, v/v/w), detection: IRIKA Amperometric E-520 detector. Tocol was used as an internal standard.

Cc1c(C)c2c(c(C)c1O)CC[C@@](C)(CCC[C@H](C)CCC[C@H](C)CCCC(C)C)O2 [α-tocopherol]
plasma α-tocopherol level as compared with the wild-type mice (heterozygous α-TTP-deficient mice): about one-half
plasma α-tocopherol level (homozygous α-TTP-deficient mice): under the detection limit
